Experiment [1] has as its target T1, SARS-CoV-2 PLpro (nsp3 1564–1878) (Severe acute respiratory syndrome coronavirus 2, UniProt P0DTD1). Nature of the experiment: biochemical. The arrangement: FRET-quenched peptide (Pro3) cleavage by PLpro, 10 min pre-incubation, slope over 20 min, normalised to no-compound control. To be noted: low concentration screen, read-out: % of control remaining.
The target in experiment [2] is T1, SARS-CoV-2 PLpro (nsp3 1564–1878). Nature of the experiment: biochemical. Further details: FRET-quenched peptide (Pro3) cleavage by PLpro, 10 min pre-incubation, slope over 20 min, normalised to no-compound control. To be noted: high concentration screen, read-out: % of control remaining.

Counter-ions that a name gives are not always drawn. Like-named read-outs stand apart in the source and are kept apart here.

The record followed here is article PMC8286840, “Identifying SARS-CoV-2 antiviral compounds by screening for small molecule inhibitors of Nsp3 papain-like protease” (Biochemical Journal, 2021).

For `CCCCCCCCOc1ccccc1C(=O)Nc1ccc(C(=O)OCC[N+](C)(CC)CC)cc1` [Otilonium (bromide)], the remaining activity at 1.25 µM in experiment [1] (Well no.=6315) is 103%. For the same molecule, the remaining activity at 3.75 µM in experiment [2] (Well no.=6315) was found to be 97.2%.
Consider `CCCCCCCCCCC/C=C\C/C=C\CCCC(=O)O` [5(Z), 8(Z)-Eicosadienoic acid], for which the remaining activity at 1.25 µM in experiment [1] (Well no.=4410) amounted to 93.6%. For the same molecule, in experiment [2] (Well no.=4410), the remaining activity at 3.75 µM worked out at 92.4%.
In the case of `C[C@H]([C@H](O)CCC(C)(C)O)[C@H]1CC[C@@]2(O)C3=CC(=O)[C@@H]4C[C@@H](O)[C@@H](O)C[C@]4(C)[C@H]3CC[C@]12C`, the remaining activity at 1.25 µM in experiment [1] (Well no.=3603) stood at 101%. Also, in experiment [2] (Well no.=3603), the remaining activity at 3.75 µM came out at 106%.
Turning to `Nc1ccn([C@@H]2O[C@H](CO)[C@@H](O)[C@@H]2O)c(=O)n1` [Cytosine-1-beta-D-arabinofuranoside hydrochloride], in experiment [1] (Well no.=374), the remaining activity at 1.25 µM turned out to be 94.2%. Besides, the remaining activity at 3.75 µM in experiment [2] (Well no.=374) is 89.3%.
For `C[C@@H](O)[C@@H]1NC(=O)[C@H](CCCCN)NC(=O)[C@@H](Cc2c[nH]c3ccccc23)NC(=O)[C@H](Cc2ccccc2)NC(=O)[C@@H](NC(=O)[C@H](N)Cc2ccccc2)CSSC[C@@H](C(=O)N[C@H](CO)[C@@H](C)O)NC1=O` [Octreotide], the remaining activity at 1.25 µM in experiment [1] (Well no.=1977) worked out at 103%. In addition, in experiment [2] (Well no.=1977), the remaining activity at 3.75 µM was 107%.
For the molecule `N=C(N)NCCC[C@@H](NC(=O)[C@@H]1CCCN1C(=O)[C@@H]1CSSCCC(=O)N[C@@H](Cc2ccc(O)cc2)C(=O)N[C@@H](Cc2ccccc2)C(=O)N[C@@H](CCC(N)=O)C(=O)N[C@@H](CC(N)=O)C(=O)N1)C(=O)NCC(N)=O` [Desmopressin (Acetate)], in experiment [1] (Well no.=8153), the remaining activity at 1.25 µM worked out at 103%. In experiment [2] (Well no.=8153), the remaining activity at 3.75 µM was found to be 96.9%.
Take `N#Cc1cccc(-c2c[nH]c3ncnc(N4CCOCC4)c23)c1` [3-(4-morpholino-7H-pyrrolo[2,3-d]pyrimidin-5-yl)benzonitrile]: the remaining activity at 1.25 µM in experiment [1] (Well no.=5684) turned out to be 97.4%. The remaining activity at 3.75 µM in experiment [2] (Well no.=5684) turned out to be 99.8%.
With `Nc1ccc(N2C(=O)c3ccccc3C2=O)c(Cl)c1` [N-(4-Amino-2-chlorophenyl)phthalimide], in experiment [1] (Well no.=344), the remaining activity at 1.25 µM was determined as 95.3%. Moreover, the remaining activity at 3.75 µM in experiment [2] (Well no.=344) was found to be 96.5%.
Consider `NCCNC(=O)c1ncsc1-c1cccc(F)c1` [Ro 41-1049 hydrochloride], for which, in experiment [1] (Well no.=1496), the remaining activity at 1.25 µM came out at 95.5%. Further, the remaining activity at 3.75 µM in experiment [2] (Well no.=1496) was 94.1%.
As for `Nc1c(Br)cc(Br)cc1CN[C@H]1CC[C@H](O)CC1` [Ambroxol], the remaining activity at 1.25 µM was determined as 102% in experiment [1] (Well no.=1614) and 98.1% in experiment [1] (Well no.=3892). The values for the remaining activity at 3.75 µM in experiment [2] (Well no.=1614) and in experiment [2] (Well no.=3892) were 101% and 97.9%, respectively.
`CC(/C=C/c1cccc(Oc2ccc(F)cc2)c1)N(O)C(N)=O` (stereo not shown) [BWB70C]: the remaining activity at 1.25 µM in experiment [1] (Well no.=221) was 103%. Besides, in experiment [2] (Well no.=221), the remaining activity at 3.75 µM amounted to 102%.
Turning to `CCCC(=O)O[C@]1(C(=O)CO)CC[C@H]2[C@@H]3CCC4=CC(=O)CC[C@]4(C)[C@H]3[C@@H](O)C[C@@]21C` [Hydrocortisone butyrate], the remaining activity at 1.25 µM in experiment [1] (Well no.=5418) stood at 94.8%. Moreover, in experiment [2] (Well no.=5418), the remaining activity at 3.75 µM was found to be 98.8%.
For `CC(CCc1ccc(O)cc1)NCCc1ccc(O)c(O)c1` (stereo not shown) [Dobutamine.HCl], the remaining activity at 1.25 µM in experiment [1] (Well no.=1781) was 101%. Further, the remaining activity at 3.75 µM in experiment [2] (Well no.=1781) was found to be 103%.
For the molecule `OCCNC1CCCc2c1[nH]c1ccc(-c3ccccc3)cc21` (stereo not shown) [CASIN], in experiment [1] (Well no.=7373), the remaining activity at 1.25 µM was 102%. Further, the remaining activity at 3.75 µM in experiment [2] (Well no.=7373) stood at 105%.
For the molecule `CC(C)OC(=O)OCOP(=O)(CO[C@H](C)Cn1cnc2c(N)ncnc21)OCOC(=O)OC(C)C` [Tenofovir Disoproxil Fumarate], the remaining activity at 1.25 µM in experiment [1] (Well no.=4811) stood at 97.8%. The remaining activity at 3.75 µM in experiment [2] (Well no.=4811) amounted to 99.5%.
Regarding `C[C@H](NC(=O)c1c(C(F)F)nn(C)c1Oc1cccc(C(F)(F)F)c1)c1ccc(C(=O)O)cc1` [E7046], in experiment [1] (Well no.=8441), the remaining activity at 1.25 µM came out at 94.7%. Further, in experiment [2] (Well no.=8441), the remaining activity at 3.75 µM is 94.6%.
